Measurements taken from patent US20220249592A1, “MUSCLE QUALITY IMPROVEMENT AGENT” (AJINOMOTO CO., INC., priority 2019, published 2022).
*1 amine or outer side, *2 acyl side, *3 side chain or, on linkers, in order; H or OH if unused. Where a SMILES comes first, the peptide text is derived from it. γGlu = O=C(O)[C@H](CCC(=O)[*:2])N[*:1]

Assays:
[1] = test system: mouse-derived muscle cell line C2C12; assay: Muscle insulin signal (phosphorylated Akt/total Akt phosphorylation index) in C2C12 myotube cells exposed to palmitic acid (FFA); format: cell-based; settings: for insulin signal that declined due to FFA: 500 μM
Method: Muscle anabolic signal was monitored by insulin signal, and the action of γ-glutamyl peptide on the decline of insulin signal was evaluated. As the γ-glutamyl peptide, the actions of γ-L-glutamyl-L-valine (γEV), γ-L-glutamyl-L-cysteine (γEC), and γ-L-glutamyl-L-valylglycine (γEVG) were evaluated.
The evaluation was performed using an evaluation system in which exposure of the mouse-derived muscle cell line C2C12 to saturated fatty acid results in a decline in insulin signal, as described below.
Using mouse C3H skeletal muscle myoblast cell line (C2C12 cell) (DS Pharma Biomedical Co., Ltd.), the evaluation was performed.
Induction of differentiation into myotube cells (Myotubes) was performed using cells with myoblast passage number of 12 to 18. Myoblasts were seeded in a 12-well (diameter=3 cm) plate at 0.3×10^5 to 0.5×10^5 cells/well. After confirmation that the cell proliferation state reached 90% confluent, the medium was replaced with DMEM supplemented with 2 (w/v) % horse serum (HS) and 1 (w/v) % penicillin-streptomycin-glutamine (2 (w/v) % HS, 1 (w/v) % P/S, 1 (w/v) % Gln/DMEM), and differentiation into myotube cells (Myotubes) was induced. After confirmation of differentiation into myotube cells (Myotubes), a muscle insulin signal evaluation system was constructed, and the action of each of γEV, γEC, and γEVG was evaluated using the constructed evaluation system.
The myotube cells (Myotubes) were cultured overnight (17 hr to 24 hr) at 37° C. in a 0.5 mM palmitic acid (FFA)/0.5 (w/v) % albumin (BSA)/DMEM culture medium in the presence of 5 (v/v) % carbon dioxide.
After culturing overnight, the cells were preincubated for about 2 hr in DMEM (BSA/FFA free), stimulated by incubation (15 min to 20 min) with 100 nM insulin, and the myotube cells were collected (each n=1 to 2). From the collected cells, proteins were extracted with RIPA (Radio-Immunoprecipitation Assay) buffer (Cell Signaling Technologies Inc.), adjusted to a final protein concentration of 0.5 mg/mL, and used as samples.
The expression levels of phosphorylated Akt (pAkt) (Ser473) (#9271S; Cell Signaling Technologies Inc.), and total Akt (#9272S; Cell Signaling Technologies Inc.) in the above-mentioned sample were quantified by the Western blotting (WB) method. The expression level of each protein was quantified using Western blot-chemiluminescent imaging system (Fusion FX) (Vilber-Lourmat Inc.).
Each γ-glutamyl peptide was added simultaneously with FFA, and the muscle quality-improving effect was examined with the recovery of the muscle insulin signal as an index. The final concentration of γEV was adjusted to 100 μM or 300 μM, and the final concentrations of γEC and […] were adjusted to 500 μM. As a positive control, an antioxidative active substance N-acetylcysteine (NAC) 5 mM was used.
From the measurement results of the expression levels of phosphorylated Akt (Ser473) and total Akt, the ratio of phosphorylated Akt and total Akt with insulin stimulation to the ratio of phosphorylated Akt and total Akt without insulin stimulation [(pAkt/Total Akt) Insulin+]/[(pAkt/Total Akt) Insulin-] was determined and shown in FIGS. 1 and 2 as the phosphorylation index (stimulation index). In the Figures, the average values of the calculated phosphorylation indices are shown in bar graphs. The symbols (●, ▪, ▴, ▾, □, Δ, ∇) in the Figures indicate the calculated values of the phosphorylation index obtained for each sample.

C57BL/6J mice [2] = assay: Amount of neutral fat in muscle and palmitic acid in neutral fat in muscle of mice under motility limitation; format: in vivo, mouse; settings: 0.2 wt % in feed, narrow cage, 28 days, vs motility limitation+lard ingestion group
Text: (§1) Using C57BL/6J mice, the effect of ingestion of γ-glutamyl peptide on the changes in muscle quality and muscle function induced by narrowing the area of the cage used for rearing to limit exercise was investigated.
C57BL/6J mice were grouped into 3 groups shown in Table 2 such that the body weight, grip strength, and lean body weight would be uniform, and one mouse was housed per cage and reared. As cages for rearing mice, a wide cage (width 220 mm×length 320 mm×height 165 mm) and a narrow cage (width 110 mm×length 160 mm×height 130 mm) were used. […]
After the completion of the above-mentioned grip strength measurement, muscles (gastrocnemius muscles) were collected from the mice in each group, and the amount of neutral fat in the muscle, which is one of the indicators of muscle quality, and the amount of palmitic acid in neutral fat in the muscle were measured.
Fat ingredient was extracted according to a chloroform/methanol method from the collected muscle, and the neutral fat content was measured by a colorimetric method at 600 nm, as well as the neutral fat was fractionated and collected by thin layer chromatography (TLC). […] The neutral fat fraction was extracted again by a chloroform/methanol method, and the composition of the fatty acid in the neutral fat was analyzed, and the amount of palmitic acid was measured. The composition of the fatty acid was analyzed by gas chromatography. […]

[3] = test system: insulin receptor substrate-1 (IRS-1); assay: Muscle insulin sensitivity (IRS-1 serine phosphorylation activity, Western blotting) in rats fed a high-fat diet; format: in vivo, rat; settings: 0.2 wt % in 30 wt % fat feed plus exercise, 6th week; vs high fat group p<0.01; FIG. 5
Method: (§2) Furthermore, the exercise groups (exercise group and exercise+γEV group) were made to perform exercise once a week under the exercise load conditions shown below.
(§3) At the 5th week of feeding the high-fat diet, the exercise function (walking function) was evaluated as follows. At the 6th week of feeding the high-fat diet, an autopsy was performed, and the muscle (tibialis anterior muscle) weight was measured. As described below, the muscle insulin sensitivity was evaluated, the fatty acid composition in muscle diacylglycerol was analyzed, and the muscle function was evaluated.
As an index of muscle insulin sensitivity, insulin receptor substrate-1 (IRS-1) serine phosphorylation activity was evaluated by a Western blotting (WB) method. […]
As the antibodies, anti-Phospho-IRS-1 (Ser307) antibody (Cell Signaling Technologies Inc.), and anti-total IRS-1 antibody (Cell Signaling Technologies Inc.) were used, the expression levels of Phospho-IRS-1 (Ser307) and total IRS-1 were quantified using Western blot-chemiluminescent imaging system (Fusion FX) (Vilber-Lourmat Inc.).
As an index of insulin sensitivity, the ratio of Phospho-IRS-1 (Ser307) expression level to total IRS-1 expression level [(Phospho-IRS-1 (Ser307))/(total IRS-1)] was determined. […]

[4] = test system: Sprague-Dawley (SD) male rats; assay: Amount of diacylglycerol and fatty acid composition in muscle diacylglycerol in rats fed a high-fat diet; format: in vivo, rat; settings: 0.2 wt % in 30 wt % fat feed plus exercise, 6th week, vs high fat group p<0.01
Method: as §2, §3
The amount of diacylglycerol (DAG) in muscle, which is highly related to muscle insulin sensitivity, was analyzed, and the composition of fatty acid contained in DAG was analyzed.
The fat ingredient in the muscle collected during autopsy was extracted according to a chloroform/methanol method, and the DAG fraction was extracted using thin layer chromatography (TLC). […] DAG was quantified at 600 nm by a colorimetric method.
The DAG fraction after development was extracted by a chloroform/methanol method, and fatty acid in DAG was quantified. As fatty acids, 9 kinds of fatty acids (lauric acid, myristic acid, palmitoleic acid, palmitic acid, linolenic acid, linoleic acid, oleic acid, stearic acid, arachidonic acid) mainly contained in the living body were selected and analyzed using gas chromatography. […]

C57BL/6J mice [5] = assay: Grip strength (muscle strength) of mice under motility limitation; format: in vivo, mouse; settings: 0.2 wt % in feed, narrow cage, 28 days; vs motility limitation+lard ingestion group; FIG. 8
Text: as §1
C57BL/6J mice were grouped into 3 groups shown in Table 2 such that the body weight, grip strength, and lean body weight would be uniform, and one mouse was housed per cage and reared. As cages for rearing mice, a wide cage (width 220 mm×length 320 mm×height 165 mm) and a narrow cage (width 110 mm×length 160 mm×height 130 mm) were used. In addition, as an experimental diet, a diet containing 20 wt % casein and 7 wt % lard or a diet containing 20 wt % casein, 7 wt % lard, and 0.2 wt % γ-glutamyl valine (γEV) was supplied.
After rearing for 28 days under the above-mentioned conditions, the grip strength of each mouse was measured and the muscle strength was evaluated.
The grip strength of the mouse was measured using a grip strength meter for small animals (“Chatillon”, Columbus Instruments). […] The aforementioned grip strength was consecutively measured five times, and the average value was calculated and used as the grip strength value of each individual. […]

[6] = test system: Sprague-Dawley (SD) male rats; assay: Walking function (stride of walking, length and width) in rats fed a high-fat diet; format: in vivo, rat; settings: 0.2 wt % in 30 wt % fat feed plus exercise, 5th week; widening of width and narrowing of length; FIG. 4
Method: as §2, §3
The walking function was evaluated by walking the rat without an anesthesia and observing the state of walking. India ink was applied to the plantar part of the both legs of the rat, and the rat was made to walk through a cylindrical tunnel with Japanese writing paper laid therein and the stride of walking (width and length) was measured based on the trace of the right leg and the left leg after walking, and the walking function was evaluated.
The respective measurement or evaluation or analysis results of the above-mentioned (2) to (4) are shown by mean±standard error in FIG. 3 to FIG. 7. […]

[7] = test system: Sprague-Dawley (SD) male rats; assay: Muscle (tibialis anterior muscle) weight in rats fed a high-fat diet with exercise load; format: in vivo, rat; settings: 0.2 wt % in 30 wt % fat feed plus exercise, 6th week; compared with exercise only group; FIG. 3
Method: as §2, §3
The exercise was performed using the left leg of the rat by applying a local resistance exercise load. A rat under isoflurane anesthesia was placed in an ankle exercise device for small animals (Bioresearch Center K.K.), a skin stimulation electrode was attached to the tibialis anterior muscle, and contraction was caused by electrical stimulation. At the same time, the tibialis anterior muscle was pulled in the direction opposite to the contraction direction, and an extension load was applied. The exercise load setting conditions are shown below.
(i) contraction (electric) load condition: 4 mA to 5 mA, 100 Hz, 1100 msec
(ii) extension load condition: angle of left leg joint was extended from 90° to 135° at rate=100 deg/sec […]

[8] = added simultaneously with 0.5 mM FFA, FIG. 2

Row | Compound | insulin signal that declined due to FFA [1, 8] | amount of neutral fat in the muscle (gastrocnemius muscle) (C57BL/6J mice [2]; FIG. 9) | amount of palmitic acid in the neutral fat in the muscle (gastrocnemius muscle) (C57BL/6J mice [2]; FIG. 10) | decline in muscle insulin sensitivity [(Phospho-IRS-1 (Ser307))/(total IRS-1)] [3] | muscle insulin signal increasing action compared with NAC ([1]; 100 μM vs NAC 5 mM, FIG. 2) | muscle insulin signal increasing action compared with NAC ([1]; 300 μM vs NAC 5 mM, FIG. 1) | decline in muscle insulin signal due to FFA (phosphorylation index) ([1]; 300 μM, added simultaneously with 0.5 mM FFA, 100 nM insulin stimulation, FIG. 1) | increase in the amount of DAG in skeletal muscle ([4]; FIG. 6) | amount of palmitic acid in muscle DAG ([4]; FIG. 7) | grip strength (C57BL/6J mice [5]) | stride of walking (length and width) during walking [6] | muscle weight (tibialis anterior muscle, weight ratio to body weight) [7]
1 | N[C@@H](CCC(=O)N[C@@H](CS)C(=O)O)C(=O)O [γEC, γ-L-glutamyl-L-cysteine] | increase the insulin signal | – | – | – | – | – | – | – | – | – | – | –
2 | CC(C)[C@H](NC(=O)CC[C@H](N)C(=O)O)C(=O)O [γEV, γ-L-glutamyl-L-valine] | – | significantly (p<0.1) small | significantly (p<0.1) small | significantly suppressed | superior to that of NAC | equal to or higher than that of NAC | recovered | significantly suppressed | significantly lower than in the high fat group | significantly (p<0.05) improved | suppressed to the same levels as in the normal group | increase in the muscle weight tended to be promoted
3 | CC(C)[C@H](NC(=O)CC[C@H](N)C(=O)O)C(=O)NCC(=O)O [γEVG, γ-L-glutamyl-L-valylglycine] (γGlu-Val-Gly-OH) | increase the insulin signal | – | – | – | – | – | – | – | – | – | – | –
